This is an account of results in ChEMBL document CHEMBL1909046, “DrugMatrix in vitro pharmacology data”.

pIC50: −log10 of the molar value.

Experiment [1] has as its target Receptor tyrosine-protein kinase erbB-2 (Homo sapiens, UniProt P04626). The experiment can be described thus: biochemical. It counts as cell-based, Insect cells. The following applies: for IC50: insect cells.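 For all read-outs here: inhibition of HER2 kinase enzyme activity, measured with Poly(Glu:Tyr) as the phosphorylation substrate.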
Experiment [2] concerns the target T1, C-C chemokine receptor type 4 (Homo sapiens, UniProt P51679).
T1 sequence (P51679 whole entry): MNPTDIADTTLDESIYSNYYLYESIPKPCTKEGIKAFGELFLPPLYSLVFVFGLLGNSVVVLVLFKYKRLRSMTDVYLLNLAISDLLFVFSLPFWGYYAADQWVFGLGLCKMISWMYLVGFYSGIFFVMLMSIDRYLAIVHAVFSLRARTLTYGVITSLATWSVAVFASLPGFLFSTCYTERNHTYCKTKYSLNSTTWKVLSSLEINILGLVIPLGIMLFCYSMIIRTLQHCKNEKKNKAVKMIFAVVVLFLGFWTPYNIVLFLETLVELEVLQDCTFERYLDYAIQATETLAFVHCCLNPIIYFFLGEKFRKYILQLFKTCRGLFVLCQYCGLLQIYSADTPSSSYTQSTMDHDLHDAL
It counts as cell membranes, Chem-1, Membrane. The following applies: chem-1.

Experiment [3] addresses 5-hydroxytryptamine receptor 1B (Rattus norvegicus, UniProt P28564). The experiment is classed as cell membranes, Wistar, Cerebral cortex, Membrane.
The target of the next experiment is T2, Adenosine receptor A1 (Homo sapiens, UniProt P30542).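 Note: radioligand binding assay at the adenosine A1 receptor, with DPCPX serving as the labelled ligand.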
T2 sequence (P30542 whole entry): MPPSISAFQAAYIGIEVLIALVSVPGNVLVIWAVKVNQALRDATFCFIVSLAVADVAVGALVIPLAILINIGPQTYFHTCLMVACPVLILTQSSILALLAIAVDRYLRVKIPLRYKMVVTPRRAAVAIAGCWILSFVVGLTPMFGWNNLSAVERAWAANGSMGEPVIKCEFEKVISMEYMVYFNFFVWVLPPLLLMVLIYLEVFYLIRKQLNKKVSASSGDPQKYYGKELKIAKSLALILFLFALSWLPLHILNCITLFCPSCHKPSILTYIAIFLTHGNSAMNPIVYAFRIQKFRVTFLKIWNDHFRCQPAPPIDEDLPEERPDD
It counts as cell membranes, CHO, Membrane. The settings on record: cho.

In experiment [4] the target is T3, Muscarinic acetylcholine receptor M2 (Homo sapiens, UniProt P08172).
T3 sequence (P08172 whole entry): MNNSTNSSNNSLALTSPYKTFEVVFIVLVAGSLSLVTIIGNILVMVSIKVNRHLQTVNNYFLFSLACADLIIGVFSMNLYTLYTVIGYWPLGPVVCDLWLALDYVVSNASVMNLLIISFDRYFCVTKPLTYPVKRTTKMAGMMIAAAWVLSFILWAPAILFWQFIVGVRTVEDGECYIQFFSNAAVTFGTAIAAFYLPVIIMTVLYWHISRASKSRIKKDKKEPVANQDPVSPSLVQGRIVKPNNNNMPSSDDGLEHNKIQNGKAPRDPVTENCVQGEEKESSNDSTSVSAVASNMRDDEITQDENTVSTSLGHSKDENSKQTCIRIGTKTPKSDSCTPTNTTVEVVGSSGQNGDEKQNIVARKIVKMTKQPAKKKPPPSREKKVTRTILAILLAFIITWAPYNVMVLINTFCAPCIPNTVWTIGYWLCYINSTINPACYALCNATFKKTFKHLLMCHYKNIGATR
It counts as cell membranes, CHO-K1, Membrane. The following applies: cho-k1.

For experiment [5], the target named is T4, C-X-C chemokine receptor type 1 (Homo sapiens, UniProt P25024).
T4 sequence (P25024 whole entry): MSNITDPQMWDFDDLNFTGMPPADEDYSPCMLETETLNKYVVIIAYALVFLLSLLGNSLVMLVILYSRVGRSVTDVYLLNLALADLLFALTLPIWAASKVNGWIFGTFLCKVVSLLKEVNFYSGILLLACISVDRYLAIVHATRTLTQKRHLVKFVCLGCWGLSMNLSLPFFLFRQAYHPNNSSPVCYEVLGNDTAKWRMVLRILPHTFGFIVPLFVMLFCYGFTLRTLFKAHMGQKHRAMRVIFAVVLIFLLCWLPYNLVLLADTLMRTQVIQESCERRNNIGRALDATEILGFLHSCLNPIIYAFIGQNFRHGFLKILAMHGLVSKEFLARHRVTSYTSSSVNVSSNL
Note: in other assays of this panel Not Active means under 50% inhibition at 10 µM.

Sequence of Receptor tyrosine-protein kinase erbB-2 (P04626 whole entry): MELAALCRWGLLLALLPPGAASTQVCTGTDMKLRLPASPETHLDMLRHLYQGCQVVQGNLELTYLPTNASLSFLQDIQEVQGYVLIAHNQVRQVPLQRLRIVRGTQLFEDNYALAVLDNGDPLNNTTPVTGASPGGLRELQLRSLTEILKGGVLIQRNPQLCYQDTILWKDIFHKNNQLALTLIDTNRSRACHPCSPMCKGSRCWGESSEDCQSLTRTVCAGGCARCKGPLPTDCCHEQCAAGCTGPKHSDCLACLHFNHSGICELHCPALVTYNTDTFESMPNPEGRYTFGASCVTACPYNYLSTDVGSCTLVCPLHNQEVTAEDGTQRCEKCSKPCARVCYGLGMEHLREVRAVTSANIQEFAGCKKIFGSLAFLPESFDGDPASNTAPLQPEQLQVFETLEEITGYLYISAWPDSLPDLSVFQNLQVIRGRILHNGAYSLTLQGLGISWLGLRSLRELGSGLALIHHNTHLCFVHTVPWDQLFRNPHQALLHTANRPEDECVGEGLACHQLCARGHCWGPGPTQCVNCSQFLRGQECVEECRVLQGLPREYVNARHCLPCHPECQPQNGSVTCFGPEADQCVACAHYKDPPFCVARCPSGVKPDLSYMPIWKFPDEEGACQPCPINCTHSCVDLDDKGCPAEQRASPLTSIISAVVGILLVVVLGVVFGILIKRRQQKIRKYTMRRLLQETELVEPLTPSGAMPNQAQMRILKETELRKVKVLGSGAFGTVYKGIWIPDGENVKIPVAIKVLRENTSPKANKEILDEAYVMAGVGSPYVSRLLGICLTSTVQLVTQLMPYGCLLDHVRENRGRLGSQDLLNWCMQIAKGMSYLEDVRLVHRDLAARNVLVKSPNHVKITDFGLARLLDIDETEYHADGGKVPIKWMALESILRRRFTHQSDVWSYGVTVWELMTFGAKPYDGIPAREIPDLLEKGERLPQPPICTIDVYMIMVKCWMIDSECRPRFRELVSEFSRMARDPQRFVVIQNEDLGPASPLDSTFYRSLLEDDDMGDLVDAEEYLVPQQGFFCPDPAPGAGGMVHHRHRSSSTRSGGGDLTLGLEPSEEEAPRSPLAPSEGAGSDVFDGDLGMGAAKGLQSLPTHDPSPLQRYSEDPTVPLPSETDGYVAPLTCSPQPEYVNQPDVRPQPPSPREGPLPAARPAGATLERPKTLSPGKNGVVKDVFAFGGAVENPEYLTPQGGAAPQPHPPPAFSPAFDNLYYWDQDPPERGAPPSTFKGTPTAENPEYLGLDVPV
Sequence of 5-hydroxytryptamine receptor 1B (P28564 whole entry): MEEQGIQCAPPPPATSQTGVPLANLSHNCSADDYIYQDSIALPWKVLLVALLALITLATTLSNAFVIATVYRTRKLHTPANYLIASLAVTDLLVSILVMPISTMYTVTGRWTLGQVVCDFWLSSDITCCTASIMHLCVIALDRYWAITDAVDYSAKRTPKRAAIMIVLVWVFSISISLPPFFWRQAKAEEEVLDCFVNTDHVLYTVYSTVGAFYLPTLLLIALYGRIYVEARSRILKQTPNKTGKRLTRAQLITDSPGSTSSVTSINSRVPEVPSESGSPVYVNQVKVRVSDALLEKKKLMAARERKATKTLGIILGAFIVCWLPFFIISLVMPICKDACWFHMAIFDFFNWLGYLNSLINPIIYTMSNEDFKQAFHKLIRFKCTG

With `Nc1c(Br)cc(Br)cc1CN[C@H]1CC[C@H](O)CC1` [AMBROXOL], the IC50 result (in experiment [1]; in experiment [2]; in experiment [3]; against Adenosine receptor A1; in experiment [4]; in experiment [5]) was “Not Active” each time.

As to `CC(C)(C)NCC(O)c1cc(Cl)c(N)c(Cl)c1` (stereo not drawn) [CLENBUTEROL], the IC50 result (in experiment [1]; in experiment [2]; in experiment [3]; on Adenosine receptor A1; in experiment [4]; in experiment [5]) was “Not Active” each time.

As to `C[C@](N)(Cc1ccc(O)c(O)c1)C(=O)O` [METHYLDOPA], the IC50 entry (in experiment [1]; in experiment [2]; in experiment [3]; against Adenosine receptor A1; in experiment [4]; in experiment [5]) was “Not Active” each time.

On to `Cc1ccccc1N1C(=O)c2cc(S(N)(=O)=O)c(Cl)cc2NC1C` (stereo not drawn) [METOLAZONE], for which the IC50 result (in experiment [1]; in experiment [2]; in experiment [3]; against Adenosine receptor A1; in experiment [4]; in experiment [5]) was “Not Active” throughout.

For `Cc1ccc(N(CC2=NCCN2)c2cccc(O)c2)cc1` [PHENTOLAMINE], the IC50 result (in experiment [1]; in experiment [2]; in experiment [3]; against Adenosine receptor A1; in experiment [4]; in experiment [5]) was “Not Active” in each case.

On to `Nc1nc2c(ncn2CCC(CO)CO)c(=O)[nH]1` [PENCICLOVIR], for which the IC50 result (in experiment [1]; in experiment [2]; in experiment [3]; on Adenosine receptor A1; in experiment [4]; in experiment [5]) was “Not Active” throughout.

On to `CCOc1ccc(NC(C)=O)cc1` [PHENACETIN], for which the IC50 result (in experiment [1]; in experiment [2]; in experiment [3]; on Adenosine receptor A1; in experiment [4]; in experiment [5]) was “Not Active” in each case.

For orientation: pIC50 means the negative decadic logarithm of the IC50, by convention in mol/L. As to `Cc1cc(C(C#N)c2ccc(Cl)cc2)c(Cl)cc1NC(=O)c1cc(I)cc(I)c1O` (stereo not drawn) [CLOSANTEL], in experiment [1] (read-out: IC50), the negative-log IC50 (pIC50) is 5.61. For the same compound, the IC50 result (in experiment [2]; in experiment [3]; on Adenosine receptor A1; in experiment [4]; in experiment [5]) was “Not Active” each time.

In the case of `C[C@]12CC[C@@H]3c4ccc(O)cc4CC[C@H]3[C@@H]1CCC2=O` [ESTRONE], the IC50 entry (in experiment [1]; in experiment [2]; in experiment [3]; against Adenosine receptor A1; in experiment [4]; in experiment [5]) was “Not Active” in each case.

For `NC1=NC(=O)C(c2ccccc2)O1` (stereo not drawn) [PEMOLINE], the IC50 entry (in experiment [1]; in experiment [2]; in experiment [3]; on Adenosine receptor A1; in experiment [4]; in experiment [5]) was “Not Active” each time.

In the case of `CN(C)C(=O)Oc1cc(OC(=O)N(C)C)cc(C(O)CNC(C)(C)C)c1` (stereo not drawn) [BAMBUTEROL], the IC50 result (in experiment [1]; in experiment [2]; in experiment [3]; at Adenosine receptor A1; in experiment [4]; in experiment [5]) was “Not Active” in each case.

Regarding `C[C@H]1c2cccc(O)c2C(=O)C2=C(O)[C@]3(O)C(=O)C(C(N)=O)=C(O)[C@@H](N(C)C)[C@@H]3[C@@H](O)[C@@H]21.O` [DOXYCYCLINE], the IC50 entry (in experiment [1]; in experiment [2]; in experiment [3]; against Adenosine receptor A1; in experiment [4]; in experiment [5]) was “Not Active” each time.

For `CC1(C)S[C@@H]2[C@H](NC(=O)Cc3ccccc3)C(=O)N2[C@H]1C(=O)O` [PENICILLIN G], the IC50 entry (in experiment [1]; in experiment [2]; in experiment [3]; against Adenosine receptor A1; in experiment [4]; in experiment [5]) was “Not Active” throughout.

As for `C[C@H]1O[C@@H](O[C@H]2[C@@H](O)C[C@H](O[C@H]3[C@@H](O)C[C@H](O[C@H]4CC[C@@]5(C)[C@H](CC[C@@H]6[C@@H]5C[C@@H](O)[C@]5(C)[C@@H](C7=CC(=O)OC7)CC[C@]65O)C4)O[C@@H]3C)O[C@@H]2C)C[C@H](O)[C@@H]1O` [DIGOXIN], the IC50 entry (in experiment [1]; in experiment [2]; in experiment [3]; against Adenosine receptor A1; in experiment [4]; in experiment [5]) was “Not Active” each time.

Turning to `c1ccc2c(c1)c1cccc3ccc4cccc2c4c31` [BENZO[E]PYRENE], the IC50 entry (in experiment [1]; in experiment [2]; in experiment [3]; against Adenosine receptor A1; in experiment [4]; in experiment [5]) was “Not Active” each time.

For the compound `Sc1ncnc2nc[nH]c12` [MERCAPTOPURINE ANHYDROUS], the IC50 entry (in experiment [1]; in experiment [2]; in experiment [3]; at Adenosine receptor A1; in experiment [4]; in experiment [5]) was “Not Active” each time.

`O=c1oc2ccccc2c(O)c1Cc1c(O)c2ccccc2oc1=O` [DICUMAROL]: the IC50 entry (in experiment [1]; in experiment [2]; in experiment [3]; against Adenosine receptor A1; in experiment [4]; in experiment [5]) was “Not Active” in each case.

Take `Nc1nc(N)nc(-c2cc(Cl)ccc2Cl)n1.O=C(O)/C=C\C(=O)O` [IRSOGLADINE MALEATE]: the IC50 result (in experiment [1]; in experiment [2]; in experiment [3]; against Adenosine receptor A1; in experiment [4]; in experiment [5]) was “Not Active” in each case.

With `CC1(C)O[C@@H]2C[C@H]3[C@@H]4CCC5=CC(=O)CC[C@]5(C)[C@@]4(F)[C@@H](O)C[C@]3(C)[C@]2(C(=O)CCl)O1` [HALCINONIDE], the IC50 result (in experiment [1]; in experiment [2]; in experiment [3]; on Adenosine receptor A1; in experiment [4]; in experiment [5]) was “Not Active” throughout.

As to `O=c1[nH]c(=O)n([C@H]2C[C@H](O)[C@@H](CO)O2)cc1I` [IDOXURIDINE], the IC50 entry (in experiment [1]; in experiment [2]; in experiment [3]; at Adenosine receptor A1; in experiment [4]; in experiment [5]) was “Not Active” throughout.

Regarding `CC(C)C(=O)Nc1ccc([N+](=O)[O-])c(C(F)(F)F)c1` [FLUTAMIDE], the IC50 entry (in experiment [1]; in experiment [2]; in experiment [3]; against Adenosine receptor A1; in experiment [4]; in experiment [5]) was “Not Active” in each case.

With `CCC1(c2ccc(N)cc2)CCC(=O)NC1=O` (stereo not drawn) [AMINOGLUTETHIMIDE], the IC50 result (in experiment [1]; in experiment [2]; in experiment [3]; against Adenosine receptor A1; in experiment [4]; in experiment [5]) was “Not Active” throughout.

For the compound `Cc1ccc2cc3c(ccc4ccccc43)c3c2c1CC3` [3-METHYLCHOLANTHRENE], the IC50 result (in experiment [1]; in experiment [2]; in experiment [3]; against Adenosine receptor A1; in experiment [4]; in experiment [5]) was “Not Active” in each case.
